Results published in the NIST ThermoML archive (doi:10.1021/acs.jced.6b00606).
± gives the expanded uncertainty stated by the source.

Test: xn = mol fraction of the nth substance listed
Conditions: 100 kPa, Liquid; for speed of sound: Frequency=3 MHz, Sing-around technique in a fixed-path interferometer; for mass density: Vibrating tube method

O=C1CCCCCC1 [cycloheptanone] + C1CCOCC1
Conditions	mass density, 293.15 K [kg/m3]	mass density, 298.15 K [kg/m3]	speed of sound, 293.15 K [m/s]	speed of sound, 298.15 K [m/s]
x2 = 0.0845	948.05 ± 1	943.9 ± 1	1457.2 ± 1.6	1435 ± 1.6
x2 = 0.1276	946.02 ± 1	941.88 ± 1	1447.3 ± 1.6	1424.9 ± 1.6
x2 = 0.1794	943.48 ± 1	939.35 ± 1	1435.5 ± 1.6	1413 ± 1.6
x2 = 0.2172	941.57 ± 1	937.43 ± 1	1427.2 ± 1.6	1404.5 ± 1.6
x2 = 0.254	939.66 ± 1	935.51 ± 1	1419.2 ± 1.6	1396.5 ± 1.6
x2 = 0.3098	936.64 ± 1	932.46 ± 1	1407.4 ± 1.5	1384.5 ± 1.5
x2 = 0.341	934.9 ± 1	930.72 ± 1	1400.9 ± 1.5	1378 ± 1.5
x2 = 0.3982	931.59 ± 1	927.36 ± 1	1389.4 ± 1.5	1366.4 ± 1.5
x2 = 0.4407	929.02 ± 1	924.78 ± 1	1381.2 ± 1.5	1358 ± 1.5
x2 = 0.4986	925.38 ± 1	921.12 ± 1	1370.2 ± 1.5	1346.9 ± 1.5
x2 = 0.5312	923.24 ± 1	918.96 ± 1	1364.3 ± 1.5	1340.9 ± 1.5
x2 = 0.5779	920.07 ± 1	915.78 ± 1	1355.9 ± 1.5	1332.6 ± 1.5
x2 = 0.6295	916.42 ± 1	912.11 ± 1	1347.1 ± 1.5	1323.7 ± 1.5
x2 = 0.6717	913.29 ± 1	908.95 ± 1	1340.1 ± 1.4	1316.6 ± 1.4
x2 = 0.7229	909.34 ± 1	904.97 ± 1	1331.9 ± 1.4	1308.4 ± 1.4
x2 = 0.7686	905.66 ± 1	901.22 ± 1	1324.8 ± 1.4	1301.4 ± 1.4
x2 = 0.8202	901.28 ± 1	896.77 ± 1	1317.2 ± 1.4	1293.7 ± 1.4
x2 = 0.8742	896.48 ± 1	891.84 ± 1	1309.5 ± 1.4	1286.1 ± 1.4
